“And” between values parts separate entries of the source, which are not always exact repeats. Identical values can stand only once. Inconclusive results and toxic doses are left out.
Test system: CD2F1 mice, L1210 leukemia ip, survival T/C
Experiment: NCI In Vivo Anticancer Drug Screen. Data for tumor model L1210 Leukemia (intraperitoneal) in CD2F1 (CDF1) mice
Conditions: higher = longer survival
Procedure, shortened: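 Tumor-bearing mice (transplanted tumor) were split into treated and vehicle control groups, and the measured endpoint of each treated group was divided by that of its vehicle controls.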

[1] = endpoint: mean survival time, dose: 50.0 mg/kg/injection, schedule: Q01DX009 (ip), vehicle: saline
[2] = endpoint: mean survival time, dose: 100.0 mg/kg/injection, schedule: Q01DX009 (ip), vehicle: saline
[3] = endpoint: mean survival time, dose: 25.0 mg/kg/injection, schedule: Q01DX009 (ip), vehicle: saline
[4] = endpoint: mean survival time, dose: 100.0 mg/kg/injection, schedule: Q01DX001 (ip), vehicle: saline
[5] = endpoint: mean survival time, dose: 100.0 mg/kg/injection, schedule: Q01DX009 (ip), vehicle: saline with Tween-80
[6] = endpoint: mean survival time, dose: 200.0 mg/kg/injection, schedule: Q01DX009 (ip), vehicle: saline with Tween-80
[7] = endpoint: mean survival time, dose: 400.0 mg/kg/injection, schedule: Q01DX009 (ip), vehicle: saline with Tween-80
[8] = endpoint: mean survival time, dose: 200.0 mg/kg/injection, schedule: Q01DX001 (ip), vehicle: saline
[9] = endpoint: mean survival time, dose: 400.0 mg/kg/injection, schedule: Q01DX001 (ip), vehicle: saline
[10] = endpoint: mean survival time, dose: 100.0 mg/kg/injection, schedule: Q04DX003 (ip), vehicle: saline with Tween-80
[11] = endpoint: mean survival time, dose: 200.0 mg/kg/injection, schedule: Q04DX003 (ip), vehicle: saline with Tween-80
[12] = endpoint: mean survival time, dose: 400.0 mg/kg/injection, schedule: Q04DX003 (ip), vehicle: saline with Tween-80

## CCCNCCNc1ccc(NCCNCCC)c2c1C(=O)c1ccccc1C2=O
endpoint: mean survival time, dose: 4.0 mg/kg/injection, schedule: Q01DX009 (ip), vehicle: acid diluted with saline
  T/C: 100 % of control
endpoint: mean survival time, dose: 8.0 mg/kg/injection, schedule: Q01DX009 (ip), vehicle: acid diluted with saline
  T/C: 110 % of control
endpoint: mean survival time, dose: 16.0 mg/kg/injection, schedule: Q01DX009 (ip), vehicle: acid diluted with saline
  T/C: 110 % of control
endpoint: mean survival time, dose: 32.0 mg/kg/injection, schedule: Q01DX009 (ip), vehicle: acid diluted with saline
  T/C: 93 % of control

## O=Nc1ccc(NO)c2ccccc12
[1]
  T/C: 98 % of control
[2]
  T/C: 102 % of control
endpoint: mean survival time, dose: 200.0 mg/kg/injection, schedule: Q01DX009 (ip), vehicle: saline
  T/C: 102 % of control

## CC(Cl)(C(Cl)Cl)C(F)(F)F (stereo unspecified)
endpoint: mean survival time, dose: 25.0 mg/kg/injection, schedule: Q01DX001 (ip), vehicle: saline
  T/C: 102 % of control
[3]
  T/C: 98 % of control
endpoint: mean survival time, dose: 50.0 mg/kg/injection, schedule: Q01DX001 (ip), vehicle: saline
  T/C: 107 % of control
[1]
  T/C: 98 % of control
[4]
  T/C: 104 % of control and 108 % of control
[2]
  T/C: 98 % of control

## CCOC(=O)CC(c1ccccc1)C(C(=O)OCC)C(=O)OCC (stereo unspecified)
[5]
  T/C: 91 % of control
[6]
  T/C: 91 % of control
[7]
  T/C: 98 % of control

## [Cl][Pt+2][Cl].[NH-]C(CC([NH-])c1ccccc1)c1ccccc1 (stereo unspecified)
endpoint: mean survival time, dose: 6.25 mg/kg/injection, schedule: Q04DX003 (ip), vehicle: saline with Tween-80
  T/C: 119 % of control and 113 % of control and 115 % of control
endpoint: mean survival time, dose: 12.5 mg/kg/injection, schedule: Q04DX003 (ip), vehicle: saline with Tween-80
  T/C: 121 % of control and 113 % of control and 119 % of control
endpoint: mean survival time, dose: 25.0 mg/kg/injection, schedule: Q04DX003 (ip), vehicle: saline with Tween-80
  T/C: 122 % of control and 113 % of control and 119 % of control

## COCC(=O)c1ccccc1
[5]
  T/C: 96 % of control
[6]
  T/C: 96 % of control
[7]
  T/C: 94 % of control

## O=[N+]([O-])c1ccc(OP2(Oc3ccc([N+](=O)[O-])cc3)=NP(Oc3ccc([N+](=O)[O-])cc3)(Oc3ccc([N+](=O)[O-])cc3)=NP(Oc3ccc([N+](=O)[O-])cc3)(Oc3ccc([N+](=O)[O-])cc3)=NP(Oc3ccc([N+](=O)[O-])cc3)(Oc3ccc([N+](=O)[O-])cc3)=N2)cc1
[3]
  T/C: 100 % of control
[1]
  T/C: 100 % of control
[2]
  T/C: 100 % of control
endpoint: mean survival time, dose: 100.0 mg/kg/injection, schedule: Q04DX003 (ip), vehicle: saline
  T/C: 102 % of control
endpoint: mean survival time, dose: 200.0 mg/kg/injection, schedule: Q04DX003 (ip), vehicle: saline
  T/C: 100 % of control
endpoint: mean survival time, dose: 400.0 mg/kg/injection, schedule: Q04DX003 (ip), vehicle: saline
  T/C: 96 % of control

## O=c1[nH]c(=S)[nH]c2ncn(C3OC(CO)C(O)C3O)c12 (stereo unspecified)
[4]
  T/C: 102 % of control
[8]
  T/C: 100 % of control
[9]
  T/C: 102 % of control

## COC1OC(CCl)C(Cl)C(OC)C1OC (stereo unspecified)
endpoint: mean survival time, dose: 100.0 mg/kg/injection, schedule: Q01DX001 (ip), vehicle: saline with Tween-80
  T/C: 96 % of control
endpoint: mean survival time, dose: 200.0 mg/kg/injection, schedule: Q01DX001 (ip), vehicle: saline with Tween-80
  T/C: 91 % of control
endpoint: mean survival time, dose: 400.0 mg/kg/injection, schedule: Q01DX001 (ip), vehicle: saline with Tween-80
  T/C: 87 % of control

## CN(CC1CCCC1)C1CCCCC1
[4]
  T/C: 98 % of control

## COc1ccc(OC)c2nc(-c3ccccc3)c(-c3ccccc3)nc12
[5]
  T/C: 98 % of control
[6]
  T/C: 97 % of control
[7]
  T/C: 104 % of control

## Cc1cc(C)c(C(=O)c2ccc(-c3ccccc3)cc2)c(C)c1
[5]
  T/C: 95 % of control
[10]
  T/C: 98 % of control
[6]
  T/C: 98 % of control
[11]
  T/C: 106 % of control
[7]
  T/C: 91 % of control
[12]
  T/C: 98 % of control

## BrCc1ccccc1C[P+](c1ccccc1)(c1ccccc1)c1ccccc1
endpoint: mean survival time, dose: 3.13 mg/kg/injection, schedule: Q01DX009 (ip), vehicle: saline sonified
  T/C: 107 % of control
endpoint: mean survival time, dose: 6.25 mg/kg/injection, schedule: Q01DX009 (ip), vehicle: saline sonified
  T/C: 96 % of control
endpoint: mean survival time, dose: 12.5 mg/kg/injection, schedule: Q04DX003 (ip), vehicle: saline sonified
  T/C: 107 % of control
endpoint: mean survival time, dose: 25.0 mg/kg/injection, schedule: Q04DX003 (ip), vehicle: saline sonified
  T/C: 100 % of control

## CCC1Cc2c([nH]c(=O)n(-c3ccccc3)c2=O)O1 (stereo unspecified)
[4]
  T/C: 95 % of control
[8]
  T/C: 98 % of control
[9]
  T/C: 92 % of control

## CC1(O)CC23CC(O)C4(O)C(CC(O)C4(C)C)C(C)(O)C2CCC1C3O (stereo unspecified)
endpoint: median survival time, dose: 0.06 mg/kg/injection, schedule: Q01DX009 (ip), vehicle: Klucel (hydroxypropylcellulose) (HPC)
  T/C: 97 % of control
endpoint: median survival time, dose: 0.12 mg/kg/injection, schedule: Q01DX009 (ip), vehicle: Klucel (hydroxypropylcellulose) (HPC)
  T/C: 96 % of control
endpoint: median survival time, dose: 0.25 mg/kg/injection, schedule: Q01DX009 (ip), vehicle: Klucel (hydroxypropylcellulose) (HPC)
  T/C: 102 % of control
endpoint: median survival time, dose: 0.5 mg/kg/injection, schedule: Q01DX009 (ip), vehicle: Klucel (hydroxypropylcellulose) (HPC)
  T/C: 97 % of control

## CC1OC(OCC2OC(Oc3c(-c4ccc(O)c(O)c4)oc4cc(O)cc(O)c4c3=O)C(O)C(O)C2O)C(O)C(O)C1O (stereo unspecified)
[4]
  T/C: 100 % of control
[8]
  T/C: 102 % of control
[9]
  T/C: 100 % of control

## CSc1ncnc2c1nnn2C1OC(COC(=O)c2ccccc2)C(OC(=O)c2ccccc2)C1OC(=O)c1ccccc1 (stereo unspecified)
endpoint: median survival time, dose: 12.5 mg/kg/injection, schedule: Q01DX005 (ip), vehicle: Klucel (hydroxypropylcellulose) (HPC)
  T/C: 94 % of control
endpoint: median survival time, dose: 25.0 mg/kg/injection, schedule: Q01DX005 (ip), vehicle: Klucel (hydroxypropylcellulose) (HPC)
  T/C: 104 % of control
endpoint: median survival time, dose: 50.0 mg/kg/injection, schedule: Q01DX005 (ip), vehicle: Klucel (hydroxypropylcellulose) (HPC)
  T/C: 116 % of control and 123 % of control
endpoint: median survival time, dose: 100.0 mg/kg/injection, schedule: Q01DX005 (ip), vehicle: Klucel (hydroxypropylcellulose) (HPC)
  T/C: 116 % of control
endpoint: median survival time, dose: 400.0 mg/kg/injection, schedule: Q01DX005 (ip), vehicle: Klucel (hydroxypropylcellulose) (HPC)
  T/C: 164 % of control

## O=C(CCl)c1cnc2ccccc2n1
endpoint: mean survival time, dose: 5.0 mg/kg/injection, schedule: Q01DX001 (ip), vehicle: saline
  T/C: 91 % of control
endpoint: mean survival time, dose: 10.0 mg/kg/injection, schedule: Q01DX001 (ip), vehicle: saline
  T/C: 94 % of control
endpoint: mean survival time, dose: 20.0 mg/kg/injection, schedule: Q01DX001 (ip), vehicle: saline
  T/C: 95 % of control

## Nc1cccc(CCCCc2ccc(Cl)c(S(=O)(=O)F)c2)c1
[5]
  T/C: 94 % of control
[10]
  T/C: 106 % of control
[6]
  T/C: 97 % of control
[11]
  T/C: 106 % of control
[12]
  T/C: 108 % of control

## CC1(C)N=C(N)N=C(N)N1c1ccc(CCCCc2ccc(S(=O)(=O)F)cc2Cl)c(Cl)c1
endpoint: mean survival time, dose: 2.59 mg/kg/injection, schedule: Q01DX009 (ip), vehicle: Klucel (hydroxypropylcellulose) (HPC)
  T/C: 105 % of control
endpoint: mean survival time, dose: 4.32 mg/kg/injection, schedule: Q01DX009 (ip), vehicle: Klucel (hydroxypropylcellulose) (HPC)
  T/C: 105 % of control
endpoint: mean survival time, dose: 7.2 mg/kg/injection, schedule: Q01DX009 (ip), vehicle: Klucel (hydroxypropylcellulose) (HPC)
  T/C: 116 % of control
endpoint: mean survival time, dose: 7.5 mg/kg/injection, schedule: Q01DX009 (ip), vehicle: Klucel (hydroxypropylcellulose) (HPC)
  T/C: 100 % of control
endpoint: mean survival time, dose: 12.5 mg/kg/injection, schedule: Q01DX009 (ip), vehicle: saline with Tween-80
  T/C: 117 % of control
endpoint: mean survival time, dose: 15.0 mg/kg/injection, schedule: Q01DX009 (ip), vehicle: Klucel (hydroxypropylcellulose) (HPC)
  T/C: 104 % of control
endpoint: mean survival time, dose: 30.0 mg/kg/injection, schedule: Q01DX009 (ip), vehicle: Klucel (hydroxypropylcellulose) (HPC)
  T/C: 113 % of control
endpoint: mean survival time, dose: 50.0 mg/kg/injection, schedule: Q04DX003 (ip), vehicle: saline
  T/C: 103 % of control
endpoint: mean survival time, dose: 60.0 mg/kg/injection, schedule: Q01DX009 (ip), vehicle: Klucel (hydroxypropylcellulose) (HPC)
  T/C: 115 % of control
endpoint: mean survival time, dose: 75.0 mg/kg/injection, schedule: Q04DX003 (ip), vehicle: saline
  T/C: 104 % of control
[5]
  T/C: 97 % of control
endpoint: mean survival time, dose: 110.0 mg/kg/injection, schedule: Q04DX003 (ip), vehicle: saline
  T/C: 121 % of control and 105 % of control
endpoint: mean survival time, dose: 133.0 mg/kg/injection, schedule: Q04DX003 (ip), vehicle: saline with Tween-80
  T/C: 158 % of control
endpoint: mean survival time, dose: 300.0 mg/kg/injection, schedule: Q04DX003 (ip), vehicle: saline with Tween-80
  T/C: 107 % of control
endpoint: median survival time, dose: 27.0 mg/kg/injection, schedule: Q01DX009 (ip), vehicle: saline with Tween-80
  T/C: 156 % of control
endpoint: median survival time, dose: 40.0 mg/kg/injection, schedule: Q01DX009 (ip), vehicle: saline with Tween-80
  T/C: 156 % of control and 162 % of control
endpoint: median survival time, dose: 60.0 mg/kg/injection, schedule: Q01DX009 (ip), vehicle: saline with Tween-80
  T/C: 158 % of control
endpoint: median survival time, dose: 90.0 mg/kg/injection, schedule: Q01DX009 (ip), vehicle: saline with Tween-80
  T/C: 168 % of control
endpoint: median survival time, dose: 200.0 mg/kg/injection, schedule: Q04DX003 (ip), vehicle: saline with Tween-80
  T/C: 167 % of control
endpoint: median survival time, dose: 225.0 mg/kg/injection, schedule: Q04DX003 (ip), vehicle: saline with Tween-80
  T/C: 164 % of control

Reference: PubChem BioAssay AID256 (DTP/NCI, 2004)
